# From patent US8445028B2, “Echinoderm-derived extracts, methods of preparation and uses thereof” (Rival, S.E.C., priority 2008, dated 2013)
# Experiment: Oxygen Radical Absorption Capacity (ORAC) assay, fluorescein/AAPH, Trolox equivalents
# Assay type: biochemical
# Details: pure antioxidants, analyses performed in the present studies; Table IV
# Excerpt: The Oxygen Radical Absorption Capacity (ORAC) assay is commonly used to measure the antioxidative capacity of various antioxidants. The ORAC assay provides an effective measure of antioxidant protection afforded to physiologically important biomolecules such as proteins. ORAC assays that may be used in the present invention include, for example, those described in U.S. Pat. No. 6,060,324, Methods in Enzymology (1999) 299: 50-62 (Cao and Prior), and Ou et al., 2001. J. Agric. Food Chem. 49: 4619-4626. […] Unless otherwise stated, the ORAC values are expressed as a TroloxTM equivalent value per gram of extract. Antioxidant properties of extracts were estimated using the Oxygen Radical Absorption Capacity (ORAC) method. The analytical procedure has been adapted from a published method (Ou et al., 2001. J. Agric. Food Chem. 49: 4619-4626), using 96-well microplates and a […] spectrofluorometer (Molecular Devices Corporation, Sunnyvale, Calif., USA). After appropriate dilution (typically between 1/100 to 1/1000), a 30-μl aliquot of the extract was added to each well in which 150 μl of 1.04 μM fluorescein and 30 μl of 162 mM 2,2'-azobis (2-amidinopropane) hydrochloride (AAPH) were previously added. TroloxTM (6-hydroxy-2,5,7,8-tetramethylchroman-2-carboxylic acid), a water soluble analog of vitamin E, was used as positive control, and phosphate buffer pH 7.4 was used as the analytical blank. The reactive mixture was incubated at 37.5° C. for 90 min. Final results were calculated as a function of the difference between the surface under the curves between blanks and extracts, and the antioxidant properties expressed as ORAC values in equivalent micromolar of TroloxTM by dry weight of the sample (μmol TE/g extract).
row,Compound,ORAC values [μmol TE/g dry extract]
1,Cc1c(C)c2c(c(C)c1O)CC[C@@](C)(CCC[C@H](C)CCC[C@H](C)CCCC(C)C)O2 [α-Tocopherol],5657
2,CC1=C(/C=C/C(C)=C/C=C/C(C)=C/C=C/C=C(C)/C=C/C=C(C)/C=C/C2=C(C)CCCC2(C)C)C(C)(C)CCC1 [β-carotene],3183
3,Catechin,16601
